Values quoted from earlier work as cited in patent publication US8895729B2, “Process for making thienopyrimidine compounds” (Genentech, Inc., priority 2012, dated 2014).

Columns and labels:
[1] = single oral dose
[2] = tested on: receptor screening assay (n=68); settings: GDC-0980=10 microM
[3] = not given; remark: listed apart in the source
[4] = tested on: PC3 PTEN-prostate xenograft; settings: mouse PC3 PTEN- prostate xenograft; 25 to 150 mg/kg qd po
[5] = tested on: MCF7.1 E545K breast xenograft; settings: mouse MCF7.1 E545K breast xenograft; 25 to 150 mg/kg qd po
[6] = tested on: MDA-MB-361.1 breast cancer xenograft
[7] = tested on: xenograft cancer models; breast, ovarian, lung, and prostate

Cc1c(CN2CCN(C(=O)[C@H](C)O)CC2)sc2c(N3CCOCC3)nc(-c3cnc(N)nc3)nc12 [GDC-0980, (S)-1-(4-((2-(2-aminopyrimidin-5-yl)-7-methyl-4-morpholinothieno[3,2-d]pyrimidin-6-yl)methyl)piperazin-1-yl)-2-hydroxypropan-1-one]
AUC dose dependence [1]: dose-proportional increases | Cmax dose dependence [1]: dose-proportional increases | responses in a receptor screening assay [2]: did not elicit significant responses | stability in human hepatocytes: stable | stability in human microsomes [3]: stable | efficacy in xenograft model [4]: efficacious | efficacy in xenograft model [5]: efficacious | minimum dose producing significant growth inhibition [6]: 1.0 mg/kg QD | IC50 (MCF7-neo/HER2 cell line): 320 nM | activity in preclinical xenograft cancer models [7]: broad activity
